Laboratory results from the NIST ThermoML archive (doi:10.1021/je101144k).

What was measured:
[1] = 101.33 kPa, Liquid; for viscosity: Concentric cylinders viscometry; for mass density: Pycnometric method
[2] = molar heat capacity at constant pressure; settings: 101.33 kPa, Liquid, Small sample (50 mg) DSC

NCCO [2-aminoethan-1-ol]
Settings | mass density, 303.15 K [kg/m3] | mass density, 313.15 K [kg/m3] | mass density, 323.15 K [kg/m3] | molar heat capacity at constant pressure, 303.15 K [J/K/mol] | molar heat capacity at constant pressure, 313.15 K [J/K/mol] | molar heat capacity at constant pressure, 323.15 K [J/K/mol] | viscosity, 303.15 K [mPa·s] | viscosity, 313.15 K [mPa·s] | viscosity, 323.15 K [mPa·s]
[1] | 1008.7 | 1000.4 | 992.5 | – | – | – | 15.36 | 10.26 | 7.19
[2] | – | – | – | 163.7 | 167.98 | 172.25 | – | – | –
